# Experimental data from PubChem BioAssay (NCI).
#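 These data come from cells grown in 96-well plates and exposed to compound for 48 hours at five concentrations. GI50 marks 50% less growth. TGI is the concentration that stops growth completely.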
# Tests used:
# Assay in all cases: NCI anticancer screen, dose series, 48 h
# 786-0 renal = system: 786-0 renal
# A498 renal = system: A498 renal
# A549 NSCLC = system: A549 NSCLC
# ACHN renal = system: ACHN renal
# BT-549 breast = system: BT-549 breast
# CAKI-1 renal = system: CAKI-1 renal
# CCRF-CEM leukemia = system: CCRF-CEM leukemia
# COLO 205 colon = system: COLO 205 colon
# DU-145 prostate = system: DU-145 prostate
# EKVX NSCLC = system: EKVX NSCLC
# HCT-116 colon = system: HCT-116 colon
# HCT-15 colon = system: HCT-15 colon
# HL-60(TB) leukemia = system: HL-60(TB) leukemia
# HOP-62 NSCLC = system: HOP-62 NSCLC
# HOP-92 NSCLC = system: HOP-92 NSCLC
# HS 578T breast = system: HS 578T breast
# HT29 colon = system: HT29 colon
# IGROV1 ovarian = system: IGROV1 ovarian
# KM12 colon = system: KM12 colon
# LOX IMVI melanoma = system: LOX IMVI melanoma
# M14 melanoma = system: M14 melanoma
# MALME-3M melanoma = system: MALME-3M melanoma
# MCF7 breast = system: MCF7 breast
# MDA-MB-435 = system: MDA-MB-435
# MDA-N = system: MDA-N
# NCI-H226 lung = system: NCI-H226 lung
# NCI-H23 lung = system: NCI-H23 lung
# NCI-H460 lung = system: NCI-H460 lung
# NCI-H522 lung = system: NCI-H522 lung
# NCI/ADR-RES ovarian = system: NCI/ADR-RES ovarian
# OVCAR-3 ovarian = system: OVCAR-3 ovarian
# OVCAR-4 ovarian = system: OVCAR-4 ovarian
# OVCAR-5 ovarian = system: OVCAR-5 ovarian
# OVCAR-8 ovarian = system: OVCAR-8 ovarian
# RPMI-8226 leukemia = system: RPMI-8226 leukemia
# RXF 393 renal = system: RXF 393 renal
# SF-268 CNS = system: SF-268 CNS
# SF-295 CNS = system: SF-295 CNS
# SF-539 CNS = system: SF-539 CNS
# SK-MEL-28 melanoma = system: SK-MEL-28 melanoma
# SK-MEL-5 melanoma = system: SK-MEL-5 melanoma
# SK-OV-3 ovarian = system: SK-OV-3 ovarian
# SN12C renal = system: SN12C renal
# SNB-19 CNS = system: SNB-19 CNS
# SNB-75 CNS = system: SNB-75 CNS
# SR leukemia = system: SR leukemia
# SW-620 colon = system: SW-620 colon
# TK-10 renal = system: TK-10 renal
# UACC-257 melanoma = system: UACC-257 melanoma
# UACC-62 melanoma = system: UACC-62 melanoma
# HCC-2998 colon = system: HCC-2998 colon
# MOLT-4 leukemia = system: MOLT-4 leukemia
# PC-3 prostate = system: PC-3 prostate
# SK-MEL-2 melanoma = system: SK-MEL-2 melanoma
# T-47D breast = system: T-47D breast
# U251 CNS = system: U251 CNS
# UO-31 renal = system: UO-31 renal
# K-562 leukemia = system: K-562 leukemia
# MDA-MB-231 breast = system: MDA-MB-231 breast
compound,measurement,setting,value
CCOC(=O)/C(=C\NC(C)(C)C)c1nc2ccccc2o1,TGI,786-0 renal,70.7 µM
same,TGI,A498 renal,> 100 µM
same,TGI,A549 NSCLC,> 100 µM
same,TGI,ACHN renal,68.5 µM
same,TGI,BT-549 breast,> 100 µM
same,TGI,CAKI-1 renal,> 100 µM
same,TGI,CCRF-CEM leukemia,54.6 µM
same,TGI,COLO 205 colon,55.3 µM
same,TGI,DU-145 prostate,> 100 µM
same,TGI,EKVX NSCLC,> 100 µM
same,TGI,HCT-116 colon,> 100 µM
same,TGI,HCT-15 colon,> 100 µM
same,TGI,HL-60(TB) leukemia,19.1 µM
same,TGI,HOP-62 NSCLC,> 100 µM
same,TGI,HOP-92 NSCLC,92.1 µM
same,TGI,HS 578T breast,63.9 µM
same,TGI,HT29 colon,80.8 µM
same,TGI,IGROV1 ovarian,> 100 µM
same,TGI,KM12 colon,> 100 µM
same,TGI,LOX IMVI melanoma,65.4 µM
same,TGI,M14 melanoma,> 100 µM
same,TGI,MALME-3M melanoma,85.6 µM
same,TGI,MCF7 breast,> 100 µM
same,TGI,MDA-MB-435,> 100 µM
same,TGI,MDA-N,> 100 µM
same,TGI,NCI-H226 lung,63.4 µM
same,TGI,NCI-H23 lung,> 100 µM
same,TGI,NCI-H460 lung,> 100 µM
same,TGI,NCI-H522 lung,> 100 µM
same,TGI,NCI/ADR-RES ovarian,> 100 µM
same,TGI,OVCAR-3 ovarian,> 100 µM
same,TGI,OVCAR-4 ovarian,> 100 µM
same,TGI,OVCAR-5 ovarian,> 100 µM
same,TGI,OVCAR-8 ovarian,> 100 µM
same,TGI,RPMI-8226 leukemia,50.8 µM
same,TGI,RXF 393 renal,67.1 µM
same,TGI,SF-268 CNS,> 100 µM
same,TGI,SF-295 CNS,> 100 µM
same,TGI,SF-539 CNS,> 100 µM
same,TGI,SK-MEL-28 melanoma,> 100 µM
same,TGI,SK-MEL-5 melanoma,26 µM
same,TGI,SK-OV-3 ovarian,> 100 µM
same,TGI,SN12C renal,> 100 µM
same,TGI,SNB-19 CNS,> 100 µM
same,TGI,SNB-75 CNS,> 100 µM
same,TGI,SR leukemia,48.6 µM
same,TGI,SW-620 colon,> 100 µM
same,TGI,TK-10 renal,> 100 µM
same,TGI,UACC-257 melanoma,51.1 µM
same,TGI,UACC-62 melanoma,50.6 µM
O=S1(=O)OCCCOS(=O)(=O)C1Br,TGI,786-0 renal,> 100 µM
same,TGI,A549 NSCLC,> 100 µM
same,TGI,ACHN renal,> 100 µM
same,TGI,BT-549 breast,> 100 µM
same,TGI,CAKI-1 renal,> 100 µM
same,TGI,COLO 205 colon,> 100 µM
same,TGI,DU-145 prostate,> 100 µM
same,TGI,EKVX NSCLC,> 100 µM
same,TGI,HCC-2998 colon,> 100 µM
same,TGI,HCT-116 colon,> 100 µM
same,TGI,HCT-15 colon,> 100 µM
same,TGI,HOP-62 NSCLC,> 100 µM
same,TGI,HT29 colon,> 100 µM
same,TGI,KM12 colon,> 100 µM
same,TGI,LOX IMVI melanoma,> 100 µM
same,TGI,M14 melanoma,> 100 µM
same,TGI,MALME-3M melanoma,> 100 µM
same,TGI,MCF7 breast,> 100 µM
same,TGI,MDA-MB-435,> 100 µM
same,TGI,MDA-N,> 100 µM
same,TGI,MOLT-4 leukemia,> 100 µM
same,TGI,NCI-H226 lung,> 100 µM
same,TGI,NCI-H23 lung,> 100 µM
same,TGI,NCI-H522 lung,> 100 µM
same,TGI,NCI/ADR-RES ovarian,> 100 µM
same,TGI,OVCAR-3 ovarian,> 100 µM
same,TGI,OVCAR-4 ovarian,> 100 µM
same,TGI,OVCAR-5 ovarian,> 100 µM
same,TGI,OVCAR-8 ovarian,> 100 µM
same,TGI,PC-3 prostate,> 100 µM
same,TGI,RPMI-8226 leukemia,> 100 µM
same,TGI,RXF 393 renal,> 100 µM
same,TGI,SF-268 CNS,> 100 µM
same,TGI,SF-295 CNS,> 100 µM
same,TGI,SF-539 CNS,> 100 µM
same,TGI,SK-MEL-2 melanoma,> 100 µM
same,TGI,SK-MEL-28 melanoma,> 100 µM
same,TGI,SK-MEL-5 melanoma,> 100 µM
same,TGI,SK-OV-3 ovarian,> 100 µM
same,TGI,SN12C renal,> 100 µM
same,TGI,SNB-19 CNS,> 100 µM
same,TGI,SNB-75 CNS,> 100 µM
same,TGI,SR leukemia,> 100 µM
same,TGI,SW-620 colon,> 100 µM
same,TGI,T-47D breast,> 100 µM
same,TGI,TK-10 renal,> 100 µM
same,TGI,U251 CNS,> 100 µM
same,TGI,UACC-257 melanoma,> 100 µM
same,TGI,UACC-62 melanoma,> 100 µM
same,TGI,UO-31 renal,> 100 µM
O=C1/C(=C/C(Cl)=C/c2ccccc2)SC(=S)N1CCc1ccc(O)cc1,GI50,786-0 renal,2.19 µM
same,TGI,786-0 renal,4.92 µM
same,GI50,A498 renal,1.86 µM
same,TGI,A498 renal,3.51 µM
same,GI50,A549 NSCLC,2.85 µM
same,TGI,A549 NSCLC,> 100 µM
same,GI50,ACHN renal,1.67 µM
same,TGI,ACHN renal,3.6 µM
same,GI50,BT-549 breast,3.44 µM
same,TGI,BT-549 breast,> 100 µM
same,GI50,CAKI-1 renal,1.52 µM
same,TGI,CAKI-1 renal,3.78 µM
same,GI50,CCRF-CEM leukemia,0.441 µM
same,TGI,CCRF-CEM leukemia,> 100 µM
same,GI50,COLO 205 colon,2.27 µM
same,TGI,COLO 205 colon,7.69 µM
same,GI50,DU-145 prostate,1.6 µM
same,TGI,DU-145 prostate,3.28 µM
same,GI50,EKVX NSCLC,1.97 µM
same,TGI,EKVX NSCLC,4.14 µM
same,GI50,HCC-2998 colon,1.91 µM
same,TGI,HCC-2998 colon,3.72 µM
same,GI50,HCT-116 colon,1.01 µM
same,TGI,HCT-116 colon,3.55 µM
same,GI50,HCT-15 colon,2.05 µM
same,TGI,HCT-15 colon,11.2 µM
same,GI50,HL-60(TB) leukemia,1.5 µM
same,TGI,HL-60(TB) leukemia,> 100 µM
same,GI50,HOP-62 NSCLC,3.15 µM
same,TGI,HOP-62 NSCLC,12.2 µM
same,GI50,HOP-92 NSCLC,3.18 µM
same,TGI,HOP-92 NSCLC,21.6 µM
same,GI50,HS 578T breast,3.24 µM
same,TGI,HS 578T breast,> 100 µM
same,GI50,HT29 colon,2.11 µM
same,TGI,HT29 colon,5.57 µM
same,GI50,IGROV1 ovarian,2.02 µM
same,TGI,IGROV1 ovarian,4.93 µM
same,GI50,K-562 leukemia,2.17 µM
same,TGI,K-562 leukemia,> 100 µM
same,GI50,KM12 colon,1.49 µM
same,TGI,KM12 colon,3.03 µM
same,GI50,LOX IMVI melanoma,1.27 µM
same,TGI,LOX IMVI melanoma,2.74 µM
same,GI50,M14 melanoma,2.42 µM
same,TGI,M14 melanoma,9.7 µM
same,GI50,MALME-3M melanoma,1.44 µM
same,TGI,MALME-3M melanoma,3 µM
same,GI50,MCF7 breast,1.85 µM
same,TGI,MCF7 breast,16.9 µM
same,GI50,MDA-MB-231 breast,3.82 µM
same,TGI,MDA-MB-231 breast,34.3 µM
same,GI50,MDA-MB-435,1.61 µM
same,TGI,MDA-MB-435,4.27 µM
same,GI50,MOLT-4 leukemia,2.2 µM
same,TGI,MOLT-4 leukemia,> 100 µM
same,GI50,NCI-H226 lung,2.17 µM
same,TGI,NCI-H226 lung,7.16 µM
same,GI50,NCI-H23 lung,2.42 µM
same,TGI,NCI-H23 lung,7.85 µM
same,GI50,NCI-H460 lung,2.08 µM
same,TGI,NCI-H460 lung,4.72 µM
same,GI50,NCI-H522 lung,1.42 µM
same,TGI,NCI-H522 lung,4.78 µM
same,GI50,NCI/ADR-RES ovarian,2.16 µM
same,TGI,NCI/ADR-RES ovarian,> 100 µM
same,GI50,OVCAR-3 ovarian,1.91 µM
same,TGI,OVCAR-3 ovarian,4.34 µM
same,GI50,OVCAR-4 ovarian,3.19 µM
same,TGI,OVCAR-4 ovarian,35.8 µM
same,GI50,OVCAR-5 ovarian,2.02 µM
same,TGI,OVCAR-5 ovarian,3.91 µM
same,GI50,OVCAR-8 ovarian,0.596 µM
same,TGI,OVCAR-8 ovarian,16.3 µM
same,GI50,PC-3 prostate,2.1 µM
same,TGI,PC-3 prostate,7.42 µM
same,GI50,RPMI-8226 leukemia,0.674 µM
same,TGI,RPMI-8226 leukemia,12.7 µM
same,GI50,RXF 393 renal,1.58 µM
same,TGI,RXF 393 renal,3.2 µM
same,GI50,SF-268 CNS,2.6 µM
same,TGI,SF-268 CNS,10.3 µM
same,GI50,SF-295 CNS,3.57 µM
same,TGI,SF-295 CNS,15.9 µM
same,GI50,SF-539 CNS,1.72 µM
same,TGI,SF-539 CNS,3.52 µM
same,GI50,SK-MEL-2 melanoma,2.56 µM
same,TGI,SK-MEL-2 melanoma,7.42 µM
same,GI50,SK-MEL-28 melanoma,1.83 µM
same,TGI,SK-MEL-28 melanoma,3.93 µM
same,GI50,SK-MEL-5 melanoma,1.77 µM
same,TGI,SK-MEL-5 melanoma,3.31 µM
same,GI50,SK-OV-3 ovarian,5.53 µM
same,TGI,SK-OV-3 ovarian,> 100 µM
same,GI50,SN12C renal,1.51 µM
same,TGI,SN12C renal,4.12 µM
same,GI50,SNB-19 CNS,1.51 µM
same,TGI,SNB-19 CNS,2.95 µM
same,GI50,SNB-75 CNS,1.31 µM
same,TGI,SNB-75 CNS,5.62 µM
same,GI50,SR leukemia,0.86 µM
same,TGI,SR leukemia,> 100 µM
same,GI50,SW-620 colon,1.43 µM
same,TGI,SW-620 colon,3.9 µM
same,GI50,T-47D breast,2.02 µM
same,TGI,T-47D breast,5.61 µM
same,GI50,TK-10 renal,2.39 µM
same,TGI,TK-10 renal,5.49 µM
same,GI50,U251 CNS,1.23 µM
same,TGI,U251 CNS,2.66 µM
same,GI50,UACC-257 melanoma,1.39 µM
same,TGI,UACC-257 melanoma,3.61 µM
same,GI50,UACC-62 melanoma,1.33 µM
same,TGI,UACC-62 melanoma,3.04 µM
same,GI50,UO-31 renal,1.29 µM
same,TGI,UO-31 renal,2.69 µM
